For data set [1], the system named is Huh7-NC12 cells. As to the kind of experiment: Exosome release from liver cancer cells (luciferase exosome reporter, ExoHTP platform). Format: cell-based. To be noted: 48 h, luciferase activity of exosomes purified from supernatant.
The subject of data set [2] is Huh7-NC12 cells. The data set is described as follows: PrestoBlue cell viability of liver cancer cells. The note with it: for cytotoxicity: 48 h, highest concentration 10,000 nM, high concentrations 3,160 and 10,000 nM; for survival rate: after two days of treatment; for toxicity to Huh7-NC12 cells: high concentrations (>3160 nM).
For data set [3], the target named is T1, GFAP (Homo sapiens, UniProt P14136).
T1 construct: endogenous in cells; host or cells: U87 human glioma cells
The data set is described as follows: Immunofluorescence microscopy of the GFAP network (specificity control). Format: cell-based. The note with it: U87 glioma cells treated with C50.

The target in data set [4] is T2, vimentin (Homo sapiens, UniProt P08670). The data set is described as follows: Fluorescence recovery after photobleaching (FRAP) of GFP-vimentin in U87 cells. Details: expressed in transfected cells; host or cells: U87 human glioma cells, transient transfection. It is filed as cell-based. To be noted: cells treated with C50 for 24 h, vs DMSO. As to the method: (§1) Cell culture: Human cancer cell lines were obtained from the Institute of Cell Research, Chinese Academy of Sciences or ATCC. Cells were cultured in an incubator with 5% CO2 in RMPI1640 supplemented with 10% fetal bovine serum, 2 mM L-glutamine and 1× penicillin-streptomycin (100 IU/ml-100 μg/ml).
Fluorescence recovery after photobleaching (FRAP): Cells were cultured on 4-well coverslips and transiently transfected with pEGFP-Vim expression vector using Lipofectamine 2000 (Invitrogen) following the manufacturer's instructions. Twenty-four h after transfection, cells were treated with DMSO or C50 for 24 h. FRAP experiments were performed using a confocal microscope system (Fluoview 1,000; Olympus). For photobleaching, the region of interest (ROI) was irradiated with 60% laser power (488 nm) for 2 s. Images were taken every 30 s for 5 min to monitor fluorescence recovery. Fluorescence intensities were corrected for sample background at each time point. After data collection, the fluorescence intensity of ROI was extracted by ImageJ software.
Target sequence in this assay (P08670 whole entry, species assumed): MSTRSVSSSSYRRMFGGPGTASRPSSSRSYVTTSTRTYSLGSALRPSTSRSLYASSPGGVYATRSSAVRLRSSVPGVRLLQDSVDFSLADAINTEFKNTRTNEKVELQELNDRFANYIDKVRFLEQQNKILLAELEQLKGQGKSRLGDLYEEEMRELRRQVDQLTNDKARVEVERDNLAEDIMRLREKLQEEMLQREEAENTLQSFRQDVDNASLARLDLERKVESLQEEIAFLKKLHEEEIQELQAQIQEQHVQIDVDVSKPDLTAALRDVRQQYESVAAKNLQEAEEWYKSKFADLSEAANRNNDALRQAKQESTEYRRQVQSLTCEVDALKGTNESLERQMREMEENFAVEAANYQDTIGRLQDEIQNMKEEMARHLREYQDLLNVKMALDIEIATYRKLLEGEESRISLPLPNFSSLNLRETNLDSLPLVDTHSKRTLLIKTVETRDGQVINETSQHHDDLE

For data set [5], the target named is T2, vimentin. As to the kind of experiment: Immunofluorescence microscopy of the vimentin intermediate filament network. It is filed as cell-based. Details: react with mouse anti-VIM antibody (Sigma, 1:200) at room temperature; endogenous in cells; host or cells: U87 human glioma cells. The note with it: U87 cells treated with C50 for 24 h, confocal immunofluorescence. On the procedure:
as §1
Immunofluorescence microscopy: Cells were cultured in 4-well coverslips, treated with DMSO or C50 for 24 h, fixed with 2% paraformaldehyde at 37° C. for 15 minutes, permeabilized in 0.2% Triton X-100 PBS at room temperature Wash for 15 min, wash 3 times with 0.05% Triton X-100 TBS, block with 10% normal goat serum in 0.05% Triton X-100 TBS, then react with mouse anti-VIM antibody (Sigma, 1:200) at room temperature Incubate for 3 h. Cells were washed 3 times with 0.05% Triton X-100 in PBS, and then incubated with Cy TM3-conjugated anti-mouse IgG antibody (Jackson, 1:300) for 1 h at room temperature. Nuclei were stained with DAPI for 5-10 min. Immunofluorescence was observed using a FV1000 (Olympus) confocal microscope.
Target sequence in this assay (P08670 2-466 limits assumed): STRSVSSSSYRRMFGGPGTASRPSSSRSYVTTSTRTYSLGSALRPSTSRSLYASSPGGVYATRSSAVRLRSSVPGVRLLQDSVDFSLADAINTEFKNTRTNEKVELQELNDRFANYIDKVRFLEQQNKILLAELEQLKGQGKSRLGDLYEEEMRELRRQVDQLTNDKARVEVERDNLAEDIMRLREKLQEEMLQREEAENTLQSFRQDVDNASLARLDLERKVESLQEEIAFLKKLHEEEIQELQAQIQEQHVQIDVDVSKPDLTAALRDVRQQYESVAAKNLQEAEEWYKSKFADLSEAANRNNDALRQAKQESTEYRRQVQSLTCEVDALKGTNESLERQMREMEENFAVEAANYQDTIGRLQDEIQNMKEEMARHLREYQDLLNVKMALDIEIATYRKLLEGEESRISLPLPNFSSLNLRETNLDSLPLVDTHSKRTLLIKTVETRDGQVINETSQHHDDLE

Data set [6] relates to EAE mice. As to the kind of experiment: MOG-induced experimental autoimmune encephalomyelitis (EAE) mouse model. Format: in vivo. To be noted: FTY720 1 mg/kg, oral once a day, vs vehicle.

Molecules are shown by their SMILES. “Also recorded” adds a separate entry of the source.

T1 sequence (P14136 whole entry): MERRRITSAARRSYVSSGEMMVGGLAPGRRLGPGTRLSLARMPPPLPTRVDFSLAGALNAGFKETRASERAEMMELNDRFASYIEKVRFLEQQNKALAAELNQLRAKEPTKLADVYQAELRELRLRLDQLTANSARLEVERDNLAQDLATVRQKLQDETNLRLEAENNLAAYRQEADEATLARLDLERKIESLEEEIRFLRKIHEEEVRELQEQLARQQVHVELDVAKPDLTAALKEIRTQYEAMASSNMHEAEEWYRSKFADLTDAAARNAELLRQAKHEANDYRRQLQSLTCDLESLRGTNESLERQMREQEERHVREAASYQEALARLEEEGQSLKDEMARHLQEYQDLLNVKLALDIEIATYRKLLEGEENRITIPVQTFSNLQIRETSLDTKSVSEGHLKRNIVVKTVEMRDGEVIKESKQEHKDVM

For `O=C(Nc1ccc(F)cc1)Nc1ccc(Nc2nc(/C=C/c3ccc(Cl)cc3)nc(N3CCOCC3)n2)cc1` [Compound C45], the “inhibition of exosome release” value in data set [1] is “stronger inhibitory effects than GW4869; also recorded: effectively inhibit the release of exosomes”. In data set [2], the cytotoxicity entry is recorded as “not cytotoxic”, the survival rate entry is “about 90%” and the “toxicity to Huh7-NC12 cells” value is “not toxic”.

Turning to `O=C(Nc1ccc(Cl)cc1)Nc1ccc(Nc2nc(/C=C/c3ccccc3)nc(N3CCOCC3)n2)cc1` [Compound C50], the “structural changes of GFAP intermediate filament protein” value in data set [3] is “no structural changes”. Moreover, the “time required to recover fluorescence in the photobleached region” value in data set [4] is on record as “significantly delayed”. Moreover, in data set [5], the “reorganization of the vimentin network” value is recorded as “significant reorganization of the vimentin network”.

Regarding `O=C(Nc1ccc(Nc2nc(/C=C/c3ccccc3)nc(N3CCOCC3)n2)cc1)Nc1ccnc(Cl)c1` [Compound C52M], in data set [1], the “inhibition of exosome release” value is given as “effectively inhibit the release of exosomes”. In addition, in data set [2], the cytotoxicity entry is “cytotoxic” and the “toxicity to Huh7-NC12 cells” value was “cytotoxic”.

Regarding `O=C(Nc1ccc(Nc2nc(/C=C/c3ccccc3)nc(N3CCOCC3)n2)cc1)Nc1ccc(C(=O)O)cc1` [Compound C69A], the “inhibition of exosome release” value in data set [1] is “stronger inhibitory effects than GW4869; also recorded: effectively inhibit the release of exosomes”. Moreover, in data set [2], the cytotoxicity entry was “not cytotoxic”, the survival rate entry is reported as “about 90%” and the “toxicity to Huh7-NC12 cells” value is “not toxic”.

Regarding `CN1CCN(C(=O)c2ccc(NC(=O)Nc3ccc(Nc4nc(/C=C/c5ccccc5)nc(N5CCOCC5)n4)cc3)cc2)CC1` [Compound C69B], the “inhibition of exosome release” value in data set [1] is reported as “effectively inhibit the release of exosomes”. Also, in data set [2], the cytotoxicity result is recorded as “cytotoxic” and the “toxicity to Huh7-NC12 cells” value is “cytotoxic”.

On to `CCCCCCCCc1ccc(CCC(N)(CO)CO)cc1` [FTY720, reference compound], for which, in data set [6], the animal weight loss entry is recorded as “reduced” and the clinical disease scores result is recorded as “improved”.

As for `O=C(/C=C/c1ccc(/C=C/C(=O)Nc2ccc(C3=NCCN3)cc2)cc1)Nc1ccc(C2=NCCN2)cc1` [GW4869, reference compound], in data set [2], the cytotoxicity result was “not cytotoxic” and the survival rate result was “about 90%”.

Values taken from patent US20250041311A1, “Compound For Treating or Preventing Vimentin-Mediated Diseases” (Aluda Pharmaceuticals, Inc., priority 2021, published 2025).
